According to patent USRE46372E1, “Method for treating hearing loss” (The Regents of the University of Michigan, priority 2006, dated 2017):
“Also recorded” adds a separate entry of the source.

Columns and labels:
[1] = system: guinea pigs; assay: Missing hair cells (hair cell counts, cytocochleograms) after noise exposure in guinea pigs; conditions: after 120 dB SPL noise for 5 h, in words
Protocol: After ABR testing, the guinea pigs are deeply anesthetized and decapitated. Temporal bones are quickly removed, dissected open and fixed with 4% paraformaldehyde. The following day, an otic capsule, lateral wall, and tectorial membrane are removed, and a bony modiolus is carefully detached. Organ of Corti tissue, attached to the modiolus, is permeabilized with 0.3% Triton-X and incubated with rhodamine phalloidin diluted 1:100 in phosphate buffered saline (30 min). After washing the tissues, individual turns from the organ of Corti are dissected, mounted on microscope slides, and examined and photographed using a Leica DMRB epiflourescence microscope. Hair cell counts are conducted, and cytocochleograms are prepared as known in the art.
Guinea pigs are treated with other compositions in order to compare the efficacy of the composition of the present disclosure with the other compositions. […] The guinea pigs are subjected to the same ABR testing, and the components of the ear are dissected, as described above in the Example to provide information on threshold shift and hair cell loss.
Eight groups of guinea pigs (where the number of guinea pigs ranges from 5 guinea pigs to 10 guinea pigs per group) are respectively treated with other compositions to compare the efficacy of the “ACEMg” composition of the present disclosure with the other compositions. […] The eight groups of guinea pigs are exposed to the same ABR testing, and the components of the ear are dissected as previously described in the Example to provide information on threshold shift and outer hair cell loss.

[2] = system: guinea pigs; assay: Noise-induced hearing loss in guinea pigs, ABR threshold shift; type: in vivo, guinea pig; conditions: for threshold shift, as averaged across all frequencies: ABR at 4, 8, 16 kHz, 10 days after 120 dB SPL Octave Band Noise centered at 4 kHz for 5 h, saline control about 45; for permanent hearing loss 10 days post noise (FIG. 1), protection in words: Trolox 100 mg/kg once daily or 50 mg/kg twice daily, betahistine 30 mg/kg once daily or 18 mg/kg, versus saline control
[3] = system: guinea pigs; assay: Gentamicin-induced hair cell loss in guinea pigs (quantitative sensory hair cell assessment); type: in vivo, guinea pig
Protocol: In addition, outer hair cell loss and inner hair cell loss is measured both in the whole cochlea and in a trauma region of the cochlea. After treatment according to the method of the present disclosure, outer hair cell loss in the whole cochlea is less than 10%, and inner hair cell loss in the whole cochlea is less than 5%. Outer cell hair loss in the trauma region is less than 20%, while inner hair cell loss in the trauma region is less than 10%. […] To obtain those results, the composition is orally administered to guinea pigs for 10 to 16 days prior to first administration of the antibiotic, and the composition and antibiotic are administered again each day for forty days. The guinea pigs are then euthanized and the hair cells counted. Conversely, when the antibiotic is administered for forty days without administering the composition described herein in conjunction with the antibiotic, outer hair cell loss approaches 80%, while inner hair cell loss is about 8%.
The method of treating side effects of antibiotic treatment with the composition of the present disclosure is again performed on guinea pigs (normal hearing, male, pigmented). Six guinea pigs are subject to antibiotic administration and treatment with the composition of the present disclosure. The guinea pigs were fed with a chow containing the composition including beta-carotene, vitamin C, vitamin E, and magnesium in the amounts shown in Table 3 for 10 days prior to administration of a first dosage of gentamicin antibiotic, and were fed the same chow every day for 41 days. […] Fourteen days following cessation of antibiotic treatment, the guinea pigs were euthanized, left cochleae harvested, and quantitative sensory hair cell assessments were performed. […]
Six guinea pigs are subject to antibiotic administration in the absence of treatment with the composition of the present disclosure. […] Fourteen days following cessation of antibiotic treatment, the guinea pigs were euthanized, left cochleae harvested, and quantitative sensory hair cell assessments were performed.

[4] = in words; cited from earlier work
[5] = in words; cited from earlier work; remark: listed apart in the source
[6] = antibiotic administered without the composition

Compound	sensory cell death by hair cell counts, whole cochlea and trauma region, compared to the saline control [1]	threshold shift, as averaged across all frequencies [2]	permanent hearing loss 10 days post noise (FIG. 1), protection in words [2]	further results
O=S(=O)([O-])[O-].[Mg+2] [magnesium, magnesium sulfate]	reduced sensory cell death	about 41 decibels	–	sensory cell death by hair cell counts, whole cochlea and trauma region, compared to the saline control ([1]; listed as Mg): significantly reduced sensory cell death
CNCCc1ccccn1 [betahistine]	–	–	approximately the same amount of protection as those treated with vitamin E; also recorded: does not exhibit an additive effect	–
Cc1c(C)c2c(c(C)c1O)CCC(C)(C(=O)O)O2 (stereo not drawn)	–	–	less permanent hearing loss than control animals	–
gentamicin	–	–	–	inner hair cell loss [3, 6]: about 8%; outer hair cell loss [3, 6]: ~80%; ototoxic effect on hair cells ([3]; gentamicin 140 mg/kg s.c. once a day for 16 days, no composition, in words): dramatic cell death of outer hair cells
CN(CC(=O)O)C(=N)N [creatine]	reduced sensory cell death	about 34 decibels	–	–
Oc1ncnc2[nH]ncc12 [allopurinol]	–	–	–	reducing gentamicin-induced ototoxicity [4]: ineffective; reducing noise-induced hearing loss [5]: effective
